Assay results: patent publication US20230201245A1, “COMPOSITIONS AND METHODS FOR TREATING VIRUS INFECTION” (CZ BIOHUB SF, LLC, priority 2020, published 2023)
Entries after “also recorded” stand apart in the source; their conditions may differ. Read-outs that look alike come from different tables or passages of the source.

Key:
[1] = system: ZIKV replication complexes; test: In vitro replication assay with crude replication complexes and clickable uridine analog (5EU); assay type: biochemical; details: crude replication complexes from ZIKV-infected cells
[2] = system: ZIKV; test: Quantification of (+)vRNA and viral particles by qPCR and plaque assays, ZIKV-infected cells; assay type: cell-based; details: added at 24 h, analyzed at 36 hpi
[3] = system: ZIKV; assay type: cell-based, ZIKV PRVABC59
[4] = system: DENV; assay type: cell-based, DENV-2 strain 16681
[5] = system: PV; assay type: cell-based, PV-1 Mahoney
[6] = system: ZIKV RNA translation initiation; test: Sucrose gradient polysome fractionation with qPCR of GAPDH mRNA and ZIKV plus-strand RNA; assay type: cell-based; details: then 30 nM RocA for 30 min
[7] = system: ZIKV NS5 and E; assay type: cell-based; details: added at 24 h, analyzed at 36 hpi; compared to CHX or Puro
[8] = system: ebola, chikungunya, influenza and ZIKV; details: cited from earlier work

Compound	ZIKV replication in vitro (5EU labelling of newly synthesized RNA) [1]	accumulation of viral RNA or particles [2]	virus production (ZIKV) [3]	virus production (DENV) [4]	also measured
C[C@@]1(O)[C@H](O)[C@@H](CO)O[C@H]1n1cnc2c(N)ncnc21 [2′CMA]	reduced	–	–	–	–
C[C@@H]1C[C@@H]([C@H](O)CC2CC(=O)NC(=O)C2)C(=O)[C@@H](C)C1 [CHX, cycloheximide]	–	reduced viral replication	–	–	–
CCOC(=O)c1ccc(-c2ncc(C(=O)OCC)s2)nc1 [PythiDC, Diethyl-pythiDC]	–	–	inhibit virus replication	inhibit virus replication	–
COc1ccc([C@@]23Oc4cc(OC)cc(OC)c4[C@]2(O)[C@H](O)[C@H](C(=O)N(C)C)[C@H]3c2ccccc2)cc1 [RocA, Rocaglamide A]	reduced	reduced viral replication	strongly reduced; also recorded: blocks viral replication; also recorded: drastic dose-dependent decrease	strongly reduced; also recorded: blocks viral replication; also recorded: drastic dose-dependent decrease	virus production (PV) [5]: only minor effects; also recorded: not PV; distribution of ZIKV plus-strand RNA in gradient fractions ([6]; ZIKV-infected cells 24 h): shift of ZIKV RNA to lighter fractions; distribution of GAPDH mRNA in gradient fractions ([6]; mock or ZIKV-infected cells 24 h): did not affect; accumulation of NS5 or E [7]: mild inhibitory effect
CC(/C=C/C(C)=C/[C@@H]1Cc2nc(cs2)[C@@H](C)C[C@@H](N)CC(=O)O[C@@H](C)C/C(C)=C/C=C\C(=O)O1)=C\CN(C)C [pateamine A]	–	–	–	–	antiviral activity [8]: antiviral activity
COC(=O)[C@H]1[C@@H](O)[C@@]2(O)c3c(OC)cc(O[C@@H]4O[C@@H]([C@H](O)CO)CO[C@H]4OC)cc3O[C@@]2(c2ccc(OC)cc2)[C@@H]1c1ccccc1 [silvestrol]	–	–	–	–	antiviral activity ([8]; against ebola, chikungunya, influenza and ZIKV, literature references): antiviral activity
